In US20220226265A1, “METHODS OF CONTROLLING MYOCARDIAL BLOOD FLOW” (UNIVERSITY OF LOUISVILLE RESEARCH FOUNDATION, INC., priority 2021, published 2022):

Legend:
[1] = test system: isolated coronary arteries; assay: L-lactate-induced vasodilation of preconstricted isolated coronary arteries; parameters: species or system mouse
Procedure: Arterial diameter measurements: Primary and secondary branches of the left anterior descending coronary arteries and third and fourth order branches of mesenteric arteries and were dissected and kept in ice-cold isolation buffer consisting of (in mM): 134 NaCl, 6 KCl, 1 MgCl2, 2 CaCl2, 10 HEPES, 7 D-glucose, pH 7.4. Isolated arteries were used for arterial diameter measurements within 8 h after dissection. Isolated arteries were cleaned of connective tissue and cannulated on glass micropipettes mounted in a linear alignment single vessel myograph chamber (Living Systems Instrumentation, St. Albans, Vt., USA). For some experiments, the vascular endothelium was functionally ablated by passage of air through the lumen (˜30 s) during the cannulation procedure. After cannulation, the chamber was placed on an inverted microscope and arteries were equilibrated at 37° C. and intravascular pressure of 20 mmHg, maintained with a pressure servo control unit (Living Systems Instrumentation, St. Albans, Vt., USA) under continuous perfusion (3-5 ml·min^−1) of physiological saline solution (PSS) consisting of (in mM): 119 NaCl, 4.7 KCl, 1.2 KH2PO4, 1.2 MgCl2, 7 D-glucose, 24 NaHCO3, 2 CaCl2, maintained at pH 7.35-7.45 via aeration with gas mixture containing 5% CO2 and 20% O2 (balanced with N2). Following an equilibration period (45-60 min), lumenal diameter was continuously monitored and recorded with a charge coupled device (CCD) camera and edge detection software (IonOptix, Milton, Mass., USA). […] Bath O2 levels were measured using a dissolved oxygen meter (World Precision Instruments, Sarasota, Fla., USA). At the end of each experiment, the maximum passive diameter was measured in the presence of Ca^2+-free PSS containing the L-type Ca^2+ channel inhibitor nifedipine (1 μM) and adenylyl cyclase activator forskolin (0.5 μM), as described previously. Vasoconstriction is expressed as a decrease in arterial diameter relative to the maximum passive diameter at a given intravascular pressure. […]

[2] = test system: coronary arterial myocytes; assay: Perforated whole cell patch clamp of outward K+ current; assay type: cell-based, mouse
Procedure: In situ proximity ligation: Arterial myocytes were isolated from coronary and mesenteric arteries using enzymatic digestion procedures, similar to those described previously. Briefly, arteries were incubated in digestion buffer containing (in mM): 140 NaCl, 5 KCl, 2 MgCl2, 10 HEPES, 10 glucose, pH 7.4 at 37° C. for 1 min. […]
Patch clamp electrophysiology: Arterial myocytes were isolated from coronary arteries as described above. […] Total outward K^+ currents (IK) were recorded from coronary arterial myocytes using the perforated whole cell configuration of the patch clamp technique in voltage clamp mode using an Axopatch 200B patch clamp amplifier (Axon Instruments). […] K^+ currents were recorded from each cell in the absence and presence of L-lactate (10 mM) in bath solution with and without psora-4 (500 nM). […] Patch clamp data were analyzed suing Clampfit 9 software (Axon Instruments). IK is expressed as peak currents reached during the period of depolarization normalized by cell capacitance and expressed as pA/pF.

[3] = test system: isolated coronary arteries; assay: Hypoxia-induced vasodilation of isolated pressurized coronary arteries; parameters: species or system mouse; settings: psora-4 500 nM; WT coronary arteries, 60 mmHg, pre-constricted with 100 nM U46619
Procedure: Arterial diameter measurements: Primary and secondary branches of the left anterior descending coronary arteries and third and fourth order branches of mesenteric arteries and were dissected and kept in ice-cold isolation buffer consisting of (in mM): 134 NaCl, 6 KCl, 1 MgCl2, 2 CaCl2, 10 HEPES, 7 D-glucose, pH 7.4. Isolated arteries were used for arterial diameter measurements within 8 h after dissection. Isolated arteries were cleaned of connective tissue and cannulated on glass micropipettes mounted in a linear alignment single vessel myograph chamber (Living Systems Instrumentation, St. Albans, Vt., USA). […] Following an equilibration period (45-60 min), lumenal diameter was continuously monitored and recorded with a charge coupled device (CCD) camera and edge detection software (IonOptix, Milton, Mass., USA). […] Bath O2 levels were measured using a dissolved oxygen meter (World Precision Instruments, Sarasota, Fla., USA). At the end of each experiment, the maximum passive diameter was measured in the presence of Ca^2+-free PSS containing the L-type Ca^2+ channel inhibitor nifedipine (1 μM) and adenylyl cyclase activator forskolin (0.5 μM), as described previously. Vasoconstriction is expressed as a decrease in arterial diameter relative to the maximum passive diameter at a given intravascular pressure. […]

[4] = test system: isolated mesenteric arteries; assay: Vasodilation of preconstricted isolated mesenteric arteries; parameters: species or system mouse
Procedure: Arterial diameter measurements: Primary and secondary branches of the left anterior descending coronary arteries and third and fourth order branches of mesenteric arteries and were dissected and kept in ice-cold isolation buffer consisting of (in mM): 134 NaCl, 6 KCl, 1 MgCl2, 2 CaCl2, 10 HEPES, 7 D-glucose, pH 7.4. Isolated arteries were used for arterial diameter measurements within 8 h after dissection. Isolated arteries were cleaned of connective tissue and cannulated on glass micropipettes mounted in a linear alignment single vessel myograph chamber (Living Systems Instrumentation, St. Albans, Vt., USA). For some experiments, the vascular endothelium was functionally ablated by passage of air through the lumen (˜30 s) during the cannulation procedure. After cannulation, the chamber was placed on an inverted microscope and arteries were equilibrated at 37° C. and intravascular pressure of 20 mmHg, maintained with a pressure servo control unit (Living Systems Instrumentation, St. Albans, Vt., USA) under continuous perfusion (3-5 ml·min^−1) of physiological saline solution (PSS) consisting of (in mM): 119 NaCl, 4.7 KCl, 1.2 KH2PO4, 1.2 MgCl2, 7 D-glucose, 24 NaHCO3, 2 CaCl2, maintained at pH 7.35-7.45 via aeration with gas mixture containing 5% CO2 and 20% O2 (balanced with N2). Following an equilibration period (45-60 min), lumenal diameter was continuously monitored and recorded with a charge coupled device (CCD) camera and edge detection software (IonOptix, Milton, Mass., USA). Experiments were performed to examine effects of step-wise increases in intravascular pressure (20-100 mmHg), elevated [K^+]o (via isosmotic replacement of KCl for NaCl), the synthetic thromboxane A2 analogue U46619 (Tocris Bioscience, Minneapolis, Minn., USA), adenosine (Sigma Aldrich, St. Louis, Mo., USA), or L-lactate (Sigma Aldrich, St. Louis, Mo., USA). For some experiments, hypoxic bath conditions were generated by perfusion of 1 mM Na2S2O4-containing PSS aerated with 5% CO2 (balance N2; 0% O2). Bath O2 levels were measured using a dissolved oxygen meter (World Precision Instruments, Sarasota, Fla., USA). At the end of each experiment, the maximum passive diameter was measured in the presence of Ca^2+-free PSS containing the L-type Ca^2+ channel inhibitor nifedipine (1 μM) and adenylyl cyclase activator forskolin (0.5 μM), as described previously. Vasoconstriction is expressed as a decrease in arterial diameter relative to the maximum passive diameter at a given intravascular pressure. Changes in diameter (e.g., vasodilation) are normalized to differences from baseline and maximum passive diameters for each experiment.

O=c1ccc2c(OCCCCc3ccccc3)c3ccoc3cc2o1 [psora-4]
effect on L-lactate-induced vasodilation ([1]; psora-4 500 nM, L-lactate 5-20 mM, WT coronary arteries): abolished
effect on L-lactate-induced increase in outward K+ current density ([2]; psora-4 500 nM, 10 mM L-lactate): abolished
attenuation of hypoxia-induced vasodilation [3]: ~58%
effect on vasodilation in response to L-lactate ([4]; psora-4 500 nM, WT mesenteric arteries): eliminated

C[C@H](O)C(=O)O [L-lactate]
vasodilation in response to external L-lactate ([1]; L-lactate 5-20 mM, WT coronary arteries pre-constricted with 100 nM U46619): step-wise vasodilation
L-lactate-induced vasodilation ([1]; coronary arteries isolated from Kvβ2−/− mice): abolished
outward K+ current density ([2]; 10 mM L-lactate in the bath, 1-3 min): significant increase
dilation on application of L-lactate ([4]; L-lactate 5-20 mM, WT mesenteric arteries preconstricted with 100 nM U46619): robust and reversible dilation
L-lactate-mediated vasodilation ([4]; endothelium-denuded mesenteric arteries, 10 mM L-lactate): insensitive to endothelial denudation
L-lactate-mediated vasodilation ([4]; mesenteric arteries constricted with elevated external K+ (60 mM) rather than U46619): abolished
dilatory response to L-lactate ([4]; mesenteric arteries from Kvβ1.1−/− mice vs corresponding WT): not significantly different
vasodilation in response to extracellular L-lactate ([4]; mesenteric arteries from SM22α-rtTA:TRE-Kvβ1 vs single transgenic control mice): significantly blunted vasodilation
vasodilation in response to L-lactate ([4]; mesenteric arteries with loss of Kvβ2): eliminated

Nc1ncnc2c1ncn2[C@@H]1O[C@H](CO)[C@@H](O)[C@H]1O [adenosine]
vasodilation induced by adenosine ([4]; adenosine 1-100 μM, Kvβ1.1−/− or Kvβ2−/− arteries vs corresponding WT): not significantly different
